We go through 1 compound from patent publication US20120202756A1, “USE OF PRODRUGS TO AVOID GI MEDIATED ADVERSE EVENTS” (priority 2009, published 2012).

What all share (assay): microbe, parasite or virus in culture
One assay concerns Clostridium sordellii. Particulars: Paraclostridium sordellii, NCTC13356, read-out: Minimum inhibitory concentration.
In a further assay the test system is Streptococcus mitis. Particulars: read-out: Minimum inhibitory concentration.
The next assay has as its system Prevotella oralis. Conditions: Hoylesella oralis, read-out: Minimum inhibitory concentration.
For assay [1], the system named is Fusobacterium necrophorum. Conditions: read-out: Minimum inhibitory concentration.
Another assay relates to Enterococcus faecalis. Particulars: ATCC29212, read-out: Minimum inhibitory concentration.
The next assay has as its system Fusobacterium nucleatum. Particulars: read-out: Minimum inhibitory concentration.
The subject of a further assay is Corynebacterium jeikeium. Conditions: read-out: Minimum inhibitory concentration.
The test system of assay [2] is Staphylococcus saprophyticus. Conditions: read-out: Minimum inhibitory concentration.
Another assay has as its system Clostridium difficile. Conditions: Clostridioides difficile.
The test system of a further assay is Streptococcus oralis. Conditions: read-out: Minimum inhibitory concentration.
Assay [3] deals with Porphyromonas endodontalis. Particulars: read-out: Minimum inhibitory concentration.
For the next assay, the system named is Prevotella denticola. Conditions: read-out: Minimum inhibitory concentration.

Converted amounts (≈) assume the structure as drawn. Like-named read-outs stand apart in the source and are kept apart here. Some results are limits rather than exact numbers.

Turning to `CCC[C@@H]1C[C@@H](C(=O)N[C@@H]([C@H]2O[C@H](SC)[C@H](O)[C@@H](O)[C@H]2O)[C@H](C)Cl)N(C)C1` [Clindamycin, clindamycin, reference compound], the MIC with Clostridium sordellii was 0.5 µg/mL (≈ 1.18 µM); with Streptococcus mitis, at most 0.03 µg/mL; in the assay on Prevotella oralis, at most 0.03 µg/mL; in assay [1] it was at most 0.03 µg/mL; with Enterococcus faecalis it was 8 µg/mL (≈ 18.8 µM); with Fusobacterium nucleatum, at most 0.03 µg/mL. In addition, the MIC is above 64 µg/mL in the assay on Corynebacterium jeikeium; 0.06 µg/mL (≈ 0.141 µM) in assay [2]; 8 µg/mL (≈ 18.8 µM) in the assay on Clostridium difficile (ATCC700057, read-out: Minimum inhibitory concentration, ATCC 700057); 4 µg/mL (≈ 9.41 µM) with Clostridium difficile (NCTC13366, read-out: Minimum inhibitory concentration, NCTC 13366 - NAP1/027); 8 µg/mL (≈ 18.8 µM) with Clostridium difficile (read-out: Minimum inhibitory concentration, antibiotic-susceptible clinical isolate); 2 µg/mL (≈ 4.71 µM) in the assay on Clostridium difficile (read-out: Minimum inhibitory concentration, ribotype 002 - clinical isolate). For the same compound, the MIC in the assay on Clostridium difficile (read-out: Minimum inhibitory concentration, ribotype 011 - clinical isolate) is 4 µg/mL (≈ 9.41 µM); in the assay with Clostridium difficile (read-out: Minimum inhibitory concentration, ribotype 027 - clinical isolate) it was 4 µg/mL (≈ 9.41 µM); with Clostridium difficile (read-out: Minimum inhibitory concentration, ribotype 050 - clinical isolate), 4 µg/mL (≈ 9.41 µM); in the assay with Clostridium difficile (read-out: Minimum inhibitory concentration, ribotype 176 - clinical isolate), 4 µg/mL (≈ 9.41 µM); in the assay with Streptococcus oralis, at most 0.03 µg/mL; in [3], at most 0.03 µg/mL. Further, the MIC in the assay on Prevotella denticola was at most 0.03 µg/mL.
